According to PubChem BioAssay (NCI):
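How tested: cells in 96-well plates exposed to compound for 48 hours at five concentrations. TGI denotes the concentration required for complete inhibition of growth.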

Key:
Assay in all cases: growth of human tumour cells (NCI), 48 h
SW-620 colon = test system: SW-620 colon
U251 CNS = test system: U251 CNS
HS 578T breast = test system: HS 578T breast
SF-295 CNS = test system: SF-295 CNS
NCI-H226 lung = test system: NCI-H226 lung
T-47D breast = test system: T-47D breast
CAKI-1 renal = test system: CAKI-1 renal
HL-60(TB) leukemia = test system: HL-60(TB) leukemia
UO-31 renal = test system: UO-31 renal
HOP-92 NSCLC = test system: HOP-92 NSCLC
SK-MEL-5 melanoma = test system: SK-MEL-5 melanoma
MOLT-4 leukemia = test system: MOLT-4 leukemia
DU-145 prostate = test system: DU-145 prostate
KM12 colon = test system: KM12 colon
MALME-3M melanoma = test system: MALME-3M melanoma
A549 NSCLC = test system: A549 NSCLC
LOX IMVI melanoma = test system: LOX IMVI melanoma
MDA-MB-231 breast = test system: MDA-MB-231 breast
A498 renal = test system: A498 renal
SN12C renal = test system: SN12C renal
SR leukemia = test system: SR leukemia
IGROV1 ovarian = test system: IGROV1 ovarian
HT29 colon = test system: HT29 colon
OVCAR-3 ovarian = test system: OVCAR-3 ovarian
EKVX NSCLC = test system: EKVX NSCLC
CCRF-CEM leukemia = test system: CCRF-CEM leukemia
SNB-19 CNS = test system: SNB-19 CNS
NCI-H522 lung = test system: NCI-H522 lung
MDA-MB-435 = test system: MDA-MB-435
RPMI-8226 leukemia = test system: RPMI-8226 leukemia
SK-MEL-28 melanoma = test system: SK-MEL-28 melanoma
OVCAR-8 ovarian = test system: OVCAR-8 ovarian
TK-10 renal = test system: TK-10 renal
HOP-62 NSCLC = test system: HOP-62 NSCLC
MDA-N = test system: MDA-N
786-0 renal = test system: 786-0 renal
UACC-257 melanoma = test system: UACC-257 melanoma
NCI/ADR-RES ovarian = test system: NCI/ADR-RES ovarian
K-562 leukemia = test system: K-562 leukemia
SF-268 CNS = test system: SF-268 CNS
BT-549 breast = test system: BT-549 breast
UACC-62 melanoma = test system: UACC-62 melanoma
ACHN renal = test system: ACHN renal
OVCAR-4 ovarian = test system: OVCAR-4 ovarian
COLO 205 colon = test system: COLO 205 colon
NCI-H23 lung = test system: NCI-H23 lung
SF-539 CNS = test system: SF-539 CNS
HCT-116 colon = test system: HCT-116 colon
MCF7 breast = test system: MCF7 breast
SK-OV-3 ovarian = test system: SK-OV-3 ovarian
SNB-75 CNS = test system: SNB-75 CNS
PC-3 prostate = test system: PC-3 prostate
HCT-15 colon = test system: HCT-15 colon
M14 melanoma = test system: M14 melanoma
RXF 393 renal = test system: RXF 393 renal
NCI-H460 lung = test system: NCI-H460 lung
OVCAR-5 ovarian = test system: OVCAR-5 ovarian
HCC-2998 colon = test system: HCC-2998 colon

Measured: TGI

O=c1[nH]nc(Cc2ccccc2)n1O
> 100 µM: SW-620 colon | U251 CNS | HS 578T breast | SF-295 CNS | NCI-H226 lung | T-47D breast | CAKI-1 renal | HL-60(TB) leukemia | UO-31 renal | HOP-92 NSCLC | SK-MEL-5 melanoma | MOLT-4 leukemia | DU-145 prostate | KM12 colon | MALME-3M melanoma | A549 NSCLC | LOX IMVI melanoma | MDA-MB-231 breast | A498 renal | SN12C renal | SR leukemia | IGROV1 ovarian | HT29 colon | OVCAR-3 ovarian | EKVX NSCLC | CCRF-CEM leukemia | SNB-19 CNS | NCI-H522 lung | MDA-MB-435 | RPMI-8226 leukemia | SK-MEL-28 melanoma | OVCAR-8 ovarian | TK-10 renal | HOP-62 NSCLC | MDA-N | 786-0 renal | UACC-257 melanoma | NCI/ADR-RES ovarian | K-562 leukemia | SF-268 CNS | BT-549 breast | UACC-62 melanoma | ACHN renal | OVCAR-4 ovarian | COLO 205 colon | NCI-H23 lung | SF-539 CNS | HCT-116 colon | MCF7 breast | SK-OV-3 ovarian

CCCCOC(=O)NC(c1ccccc1)C(O)C(=O)OC1C[C@@]2(O)C(OC(=O)c3ccccc3)C3[C@](C)(C(=O)[C@H](OC(C)=O)C(=C1C)C2(C)C)[C@@H](O)C[C@H]1OC[C@@]31OC(C)=O (stereo partly specified)
0.0663 µM: A498 renal
> 9.14 µM: MOLT-4 leukemia
> 10 µM: SW-620 colon | U251 CNS | SF-295 CNS | T-47D breast | SNB-75 CNS | UO-31 renal | HOP-92 NSCLC | SK-MEL-5 melanoma | PC-3 prostate | KM12 colon | HCT-15 colon | A549 NSCLC | LOX IMVI melanoma | MDA-MB-231 breast | SN12C renal | M14 melanoma | SR leukemia | IGROV1 ovarian | EKVX NSCLC | CCRF-CEM leukemia | SNB-19 CNS | OVCAR-8 ovarian | TK-10 renal | NCI-H460 lung | HOP-62 NSCLC | OVCAR-5 ovarian | 786-0 renal | K-562 leukemia | SF-268 CNS | BT-549 breast | UACC-62 melanoma | ACHN renal | OVCAR-4 ovarian | COLO 205 colon | NCI-H23 lung | HCT-116 colon | MCF7 breast | SK-OV-3 ovarian
0.0113 µM: MDA-N
0.0469 µM: HS 578T breast
0.0175 µM: SF-539 CNS
> 7.96 µM: RPMI-8226 leukemia
> 6.88 µM: OVCAR-3 ovarian
0.0241 µM: MDA-MB-435
0.00741 µM: HL-60(TB) leukemia
> 6.5 µM: NCI/ADR-RES ovarian
0.595 µM: HCC-2998 colon
6.81 µM: HT29 colon
0.0755 µM: RXF 393 renal
